Literature values as cited in PMC6337650 (Molecules, 2018).

System: AGS cells
Conditions: read-out: IC50 against AGS cells; cited from earlier work

COC(=O)C(Cc1c[nH]c2ccccc12)NC(=O)[C@]1(C)CC[C@]2(C)CC[C@]3(C)C4=CC=C5C(=CC(=O)C(O)=C5C)[C@]4(C)CC[C@@]3(C)C2C1 (stereo partly shown) [Compound C]
IC50: 440 nM
